We go through twelve molecules from ChEMBL document CHEMBL5154800, “Identification of N, C-capped di- and tripeptides as selective immunoproteasome inhibitors” (Eur J Med Chem, 2022).

Test [1] relates to DOHH-2. Description: Antiproliferative activity against human DOHH-2 cells assessed as growth inhibition at 0.2 uM measured after 72 hrs by MTT assay. Type of test: functional. The following applies: read-out: GI. For orientation: Tetrazolium dyes change colour on reduction, which living cells bring about.
For test [2], the system named is Pfeiffer. Briefly: Antiproliferative activity against human Pfeiffer cells assessed as growth inhibition at 0.2 uM measured after 72 hrs by MTT assay. In kind it is functional. Conditions: read-out: GI.
Test [3] deals with HCT-116. Briefly: Antiproliferative activity against human HCT-116 cells assessed as growth inhibition at 0.2 uM measured after 72 hrs by MTT assay. In kind it is functional. Conditions: read-out: GI.
Test [4] deals with HT-29. Briefly: Antiproliferative activity against human HT-29 cells assessed as growth inhibition at 0.2 uM measured after 72 hrs by MTT assay. Type of test: functional. Conditions: read-out: GI.
Test [5] relates to MCF7. Description: Antiproliferative activity against human MCF7 cells assessed as growth inhibition at 0.2 uM measured after 72 hrs by MTT assay. Type of test: functional. Conditions: read-out: GI.
The subject of test [6] is HCT-116. Briefly: Antiproliferative activity against human HCT-116 cells assessed as growth inhibition measured after 72 hrs by CCK-8 assay. Type of test: functional, cell-based. The following applies: HCT-116, 72 h.
Test [7] has as its system THP-1. Description: Antiinflammatory activity against LPS-stimulated human THP-1 cells assessed inhibition of TNF-alpha release at 40 uM measured by ELISA. In kind it is functional, cell-based. (An ELISA detects its analyte on a solid surface through an enzyme-linked reagent.)
For test [8], the system named is THP-1. Briefly: Antiinflammatory activity against LPS-stimulated human THP-1 cells assessed inhibition of IL-6 release at 40 uM measured by ELISA. Type of test: functional, cell-based.
The nature of test [9]: Selectivity ratio of IC50 for inhibition of 20S proteasome beta 5c subunit (unknown origin) to IC50 for inhibition of 20S proteasome subunit beta-5i.
Test [10] concerns the target T1, Proteasome subunit beta type-9 (Homo sapiens, UniProt P28065).
T1 sequence (P28065 whole entry): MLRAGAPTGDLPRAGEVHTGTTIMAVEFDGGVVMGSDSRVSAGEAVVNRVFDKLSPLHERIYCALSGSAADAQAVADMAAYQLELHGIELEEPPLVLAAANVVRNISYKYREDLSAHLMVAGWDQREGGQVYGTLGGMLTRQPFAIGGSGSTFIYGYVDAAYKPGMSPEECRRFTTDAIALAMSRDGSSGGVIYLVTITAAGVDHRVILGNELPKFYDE
Briefly: Inhibition of 20S proteasome subunit beta-1i (unknown origin) using Ac-PAL-AMC as substrate and measured after 30 mins.

Test [11] deals with T2, Proteasome subunit beta type-10 (Homo sapiens, UniProt P40306).
T2 sequence (P40306 whole entry): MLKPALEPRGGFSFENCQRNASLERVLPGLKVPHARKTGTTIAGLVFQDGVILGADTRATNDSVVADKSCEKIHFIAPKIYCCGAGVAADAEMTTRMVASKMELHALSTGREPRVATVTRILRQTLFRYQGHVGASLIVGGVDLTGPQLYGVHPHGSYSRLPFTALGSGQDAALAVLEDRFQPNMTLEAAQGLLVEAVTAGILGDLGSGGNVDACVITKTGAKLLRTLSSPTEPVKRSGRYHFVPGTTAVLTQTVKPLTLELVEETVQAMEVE
Description: Inhibition of 20S proteasome subunit beta-2i (unknown origin) using Ac-KQL-AMC as substrate and measured after 30 mins.

Test [12] concerns the target T3, Proteasome subunit beta type-8 (Homo sapiens, UniProt P28062).
T3 sequence (P28062 whole entry): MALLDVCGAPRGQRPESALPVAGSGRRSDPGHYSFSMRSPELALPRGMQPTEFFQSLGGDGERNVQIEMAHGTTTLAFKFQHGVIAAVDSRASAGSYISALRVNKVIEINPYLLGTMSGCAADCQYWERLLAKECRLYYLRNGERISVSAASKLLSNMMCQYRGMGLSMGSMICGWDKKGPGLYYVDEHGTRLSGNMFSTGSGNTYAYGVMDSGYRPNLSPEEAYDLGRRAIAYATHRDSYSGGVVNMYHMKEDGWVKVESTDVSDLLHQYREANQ
Briefly: Inhibition of 20S proteasome subunit beta-5i (unknown origin) using Ac-ANW-AMC as substrate and measured after 30 mins.

Test [13] addresses T4, Proteasome Macropain subunit MB1 (Homo sapiens, UniProt P28074).
T4 sequence (P28074 whole entry): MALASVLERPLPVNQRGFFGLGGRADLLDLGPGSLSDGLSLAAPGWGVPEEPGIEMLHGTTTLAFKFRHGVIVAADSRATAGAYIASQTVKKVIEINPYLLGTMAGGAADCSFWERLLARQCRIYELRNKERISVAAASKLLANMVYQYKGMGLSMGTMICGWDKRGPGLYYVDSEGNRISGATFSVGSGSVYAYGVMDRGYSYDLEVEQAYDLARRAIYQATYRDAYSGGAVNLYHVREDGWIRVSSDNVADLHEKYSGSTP
Description: Inhibition of 20S proteasome subunit beta-5c (unknown origin) using Ac-WLA-AMC as substrate and measured after 30 mins.

What is called pIC50 is the IC50 on a negative log10 scale, so that one unit is a factor of ten.

pIC50: −log10 of the molar value. Activity calls are given as the source filed them. The rule behind the calls is not given here. Bounds are passed on as bounds.

As for `Cc1ccc(CNC(=O)[C@H](Cc2ccc3ccccc3c2)NC(=O)[C@H](CCC(=O)NC(C)(C)C)NC(=O)CCNC(=O)CCl)cc1`, the inhibition of growth at 0.2 µM was under 20% in [1]; 28% in [2]; 60% in test [3]; under 20% in test [4]; under 20% in [5]. Further, the pIC50 in test [6] is 5.77. Moreover, the outcome in [7] and in [8] was Active.

For the molecule `Cc1ccc(CNC(=O)[C@H](Cc2ccccc2)NC(=O)[C@H](CCC(=O)NC(C)(C)C)NC(=O)[C@H](CNC(=O)CCl)NC(=O)CCCc2ccccc2)cc1`, the inhibition of growth at 0.2 µM was 25% in test [1]; 23% in test [2]; 82% in test [3]; 53% in test [4]; under 20% in test [5]. Moreover, in test [6], the pIC50 is 6.06.

On to `Cc1ccc(CNC(=O)[C@H](Cc2ccccc2)NC(=O)[C@H](CCC(=O)NC(C)(C)C)NC(=O)[C@H](CNC(=O)CCl)NS(=O)(=O)c2ccc(C)cc2)cc1`, for which the inhibition of growth at 0.2 µM in test [1] was 34%; in [2], 26%; in test [3], 85%; in test [4], 59%; in [5] it was under 20%. For the same molecule, in test [6], the pIC50 was 5.96.

Turning to `COc1ccc(C[C@H](NC(=O)[C@H](C)NC(=O)CN2CCOCC2)C(=O)NC(Cc2ccccc2)C(=O)[C@@]2(C)CO2)cc1` (some centres not stated), the inhibition of growth at 0.2 µM in test [1] is 56%; in test [2] it was 36%; in test [3] it was 75%; in [4] it was 54%; in test [5] it was under 20%. The pIC50 in test [6] was 6.14. Further, the outcome in test [7] and in [8] was Active.

Turning to `CC(C)(C)NC(=O)CC[C@H](NC(=O)CCNC(=O)CCl)C(=O)N[C@@H](Cc1ccc2ccccc2c1)C(=O)NCc1cccc2ccccc12`, the Ratio IC50 in test [9] was 535. Moreover, the inhibition of growth at 0.2 µM is under 20% in test [1]; under 20% in test [2]; 21% in test [3]; under 20% in test [4]; 25% in test [5]. Further, the result in [7] and in [8] was Active. Besides, the pIC50 in test [10] and in [11] was under 4.40 in each case.

As to `CC(C)(C)NC(=O)CC[C@H](NC(=O)CCNC(=O)/C(C#N)=C/c1ccc(Cl)cc1)C(=O)N[C@@H](Cc1ccc2ccccc2c1)C(=O)NCc1cccc2ccccc12`, the Ratio IC50 in [9] worked out at 222. Besides, the inhibition of growth at 0.2 µM in test [1] was under 20%; in [2] it was 28%; in test [3], under 20%; in test [4], under 20%; in test [5], under 20%. Also, the outcome in [7] and in test [8] was Active.

As to `Cc1ccc(CNC(=O)[C@H](Cc2ccccc2)NC(=O)[C@H](CCC(=O)NC(C)(C)C)NC(=O)[C@H](CNC(=O)CCl)NC(=O)c2cc(C)on2)cc1`, the inhibition of growth at 0.2 µM in test [1] was under 20%; in test [2], 30%; in test [3] it was 83%; in [4], 54%; in test [5], under 20%. The pIC50 in test [6] is 6.34.

With `CC(C)(C)NC(=O)CC[C@H](NC(=O)CCNC(=O)CCl)C(=O)N[C@@H](Cc1ccccc1)C(=O)NCc1cccc2ccccc12`, the pIC50 was 8.42 in [12], under 4.40 in test [10] and under 4.40 in [11]. Also, the Ratio IC50 in [9] is 113. The inhibition of growth at 0.2 µM in [1] is under 20%; in [2] it was under 20%; in test [3], 21%; in [4] it was under 20%; in test [5], under 20%. In addition, the result in test [7] and in test [8] was Active.

`Cc1ccc(CNC(=O)[C@H](Cc2ccc([N+](=O)[O-])cc2)NC(=O)[C@H](CCC(=O)NC(C)(C)C)NC(=O)CCNC(=O)CCl)cc1`: the negative logarithm of the IC50 (pIC50) in test [13] was 7.08; in test [6], 6.10. Also, the inhibition of growth at 0.2 µM in test [1] is under 20%; in [2] it was under 20%; in test [3] it was 58%; in test [4], under 20%; in test [5], under 20%.

As for `Cc1ccc(CNC(=O)[C@H](Cc2ccccc2)NC(=O)[C@H](CCC(=O)NC(C)(C)C)NC(=O)CCNC(=O)/C(C#N)=C/c2ccco2)cc1`, the pIC50 in [12] was 8.53; in [6], 6.80; in test [10], under 4.40; in test [11] it was under 4.40. Further, the inhibition of growth at 0.2 µM in [1] is 23%; in test [2], under 20%; in [3], 76%; in test [4], 48%; in test [5], under 20%.

Turning to `Cc1ccc(CNC(=O)[C@H](Cc2ccccc2)NC(=O)[C@H](CC(N)=O)NC(=O)[C@H](CNC(=O)CCl)NC(=O)CN2CCOCC2)cc1`, the negative-log IC50 (pIC50) in test [12] is 5.56; in [13], under 5.00. The Ratio IC50 in test [9] is over 4. Also, the outcome in test [7] and in test [8] was Active.

As to `COc1ccc(C[C@H](NC(=O)[C@H](CCC(=O)NC(C)(C)C)NC(=O)CCNC(=O)CCl)C(=O)NCc2ccc(C)cc2)cc1`, the Ratio IC50 in test [9] came out at 36. Besides, the inhibition of growth at 0.2 µM is under 20% in [1]; 28% in [2]; 29% in [3]; under 20% in test [4]; under 20% in [5]. Moreover, the result in [7] and in [8] was Active.
